These results are taken from patent US20230058279A1, “HERBICIDE COMPOSITIONS WITH AUXIN HERBICIDE MONOETHANOLAMINE SALTS WITH IMPROVED PROPERTIES” (MONSANTO TECHNOLOGY LLC, priority 2020, published 2023).

A short description of this data set: Partition coefficient of compound (A) in solvents. In kind it is physicochemical. As to conditions: HPLC. The protocol:
Experimental procedure for the respective solvent: (1) A solution of 10 g of compound (A) is prepared in 90 g of the respective solvent. (2) An aliquot of 10 g of the solution obtained in step (1) is added to 90 g of water in a glass bottle, which is shaken on a mechanical shaker for 4 hours at ambient temperature (approximately 25° C.). (3) The contents of the glass bottle are permitted to phase separate for 4 days at ambient temperature (approximately 25° C.). (4) Subsamples of the resulting oil and water phases are taken and analyzed by HPLC to determine the concentrations of compound (A) in oil (Co) and water phases (Cw) respectively. The subsamples are typically centrifuged before HPLC analysis to remove traces of organic solvent from the water phase.
A Partition Coefficient, analogous to the Octanol-Water Partition Coefficient, P, is calculated as Co/Cw. The Partition Coefficient is conveniently expressed as a logarithm […].
The ratio of determined concentrations of compound (A) in the solvent phase and the water phase typically is very large. […] In other cases, traces of the organic solvent are found in the water phase, even after centrifugation, so that the apparent concentration of oil-soluble herbicide observed in the water phase is misleadingly high. […]

Structures are written as SMILES.

Turning to `CCOC(=O)COc1ncccc1Oc1cc(-n2c(=O)cc(C(F)(F)F)n(C)c2=O)c(F)cc1Cl` [Cmp. A, ethyl [3-[2-chloro-4-fluoro-5-(1-methyl-6-trifluoromethyl-2,4-dioxo-1,2,3,4-tetrahydropyrimidin-3-yl)phenoxy]-2-pyridyloxy]acetate], the “compound (A) in the water phase” value by setting is: (acetophenone as organic solvent) “undetectable”; (aromatic 200ND as organic solvent) “undetectable”.
